Assay results published in patent EP3095787A1, “[…] ACTIVE COMPOUNDS AS DAG-LIPASE INHIBITORS” (Universiteit Leiden, priority 2015, dated 2016).

How the values were obtained:
FAAH = biological target: T1, FAAH (Mus musculus, UniProt O08914); assay: Gel based competitive ABPP selectivity assay with TAMRA-FP in mouse brain proteome (FAAH band); format: biochemical; settings: for FAAH ABPP (10 µm) % Eff.: 10 µM inhibitor, TAMRA-FP 500 nM, mouse brain proteome, vehicle set to 100%
T1 construct: For gel based ABPP experiments mouse brain proteome (2.0 mg/mL, 20 µL) was preincubated; from tissue; host or cells: mouse brain proteome
T1 sequence (O08914 1-579): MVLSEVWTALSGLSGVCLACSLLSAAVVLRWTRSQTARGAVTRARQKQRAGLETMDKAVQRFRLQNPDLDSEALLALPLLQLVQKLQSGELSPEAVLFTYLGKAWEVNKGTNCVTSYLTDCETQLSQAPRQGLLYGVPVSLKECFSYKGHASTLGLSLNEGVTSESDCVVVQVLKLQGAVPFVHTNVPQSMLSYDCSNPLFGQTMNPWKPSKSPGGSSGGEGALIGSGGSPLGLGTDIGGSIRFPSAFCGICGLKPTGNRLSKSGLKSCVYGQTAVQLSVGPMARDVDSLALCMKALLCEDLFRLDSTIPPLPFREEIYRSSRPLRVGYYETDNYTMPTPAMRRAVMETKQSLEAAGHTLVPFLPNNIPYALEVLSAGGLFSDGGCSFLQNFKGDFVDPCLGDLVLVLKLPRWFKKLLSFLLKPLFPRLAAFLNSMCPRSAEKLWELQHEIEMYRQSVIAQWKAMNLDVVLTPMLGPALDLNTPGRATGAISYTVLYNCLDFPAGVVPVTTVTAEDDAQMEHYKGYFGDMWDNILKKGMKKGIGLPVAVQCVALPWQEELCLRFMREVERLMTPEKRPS
Protocol: For gel based ABPP experiments mouse brain proteome (2.0 mg/mL, 20 µL) was preincubated for 30 min with vehicle (DMSO) or compound to be tested in 0.5 µL DMSO at rt. And subsequently treated with 500 nM (final concentration) TAMRA-FP (TAMRA-FP was bought at Thermo Fischer) for 15 minutes at rt. The reactions were quenched with 10 µL standard 3 x SDS page sample buffer. The samples were directly loaded and resolved on SDS page gel (10 % acrylamide). The gels were scanned with a ChemiDoc MP sytem (Biorad, Cy 3 settings, 605/50 filter) and analyzed using Image Lab 4.1.
The percentage effect on FAAH was determined by measuring the integrated optical intensity of the band corresponding to FAAH (∼ 63 kD for mouse) using Image lab software. This activity was corrected for the total protein loading per lane as determined by coomassie staining and imaging with a ChemiDoc™ MP sytem (Biorad) followed by determination of the integrated optical intensity per lane by using Image Lab 4.1 software. The intensity of the protein bands from the samples treated with vehicle was set to 100%. […] N/A means less than 50% probe displacement at 10 µM inhibitor concentration.

cannabinoid CB1 receptor = biological target: T2, cannabinoid CB1 receptor (Homo sapiens, UniProt P21554); assay: [3H]CP55940 displacement assay on CHOK1hCB1_bgal membranes; format: binding
T2 construct: expressed in transfected cells; host or cells: CHOK1hCB1_bgal (CHO-K1), membranes
Protocol: CHOK1hCB1_bgal cells (CHOK1 cell line expressing human cannabinoid receptor 1) were cultured in Ham's F12 Nutrient Mixture supplemented with 10% fetal calf serum, 1 mM glutamine, 50 U/mL penicillin, 50 µg/ml streptomycin, […] hygromycin and 800 µg/mL geneticin in a humidified atmosphere at 37°C and 5% CO2. Cells were subcultured twice a week at a ratio of 1:20 on 10-cm ø plates by trypsinization. For membrane preparation the cells were subcultured 1:10 and transferred to large 15-cm diameter plates.
The cells on thirty 15-cm ø plates were detached from the bottom by scraping them into 5 mL phosphate-buffered saline (PBS), collected in 12 mL Falcon tubes and centrifuged for 5 minutes at 200 x g (3,000 rpm). The pellets were resuspended in ice-cold 50 mM Tris-HCl buffer and 5 mM MgCl2 (pH 7.4). […] Membrane protein concentrations were measured using the BCA method.
[^3H]CP55940 displacement assays were used for high throughput screening of cold ligands and the determination of their affinity (Ki) and IC50 values. […] Nonspecific binding was determined in the presence of 10 µM AM630 (6-lodopravadoline; a selective inverse agonist for the cannabinoid receptor CB2). […] After 2 hours, the filter-bound radioactivity was determined by scintillation spectrometry using a Tri-Carb 2900 TR liquid scintillation counter (Perkin Elmer, Boston, MA).

T2 sequence (P21554 whole entry): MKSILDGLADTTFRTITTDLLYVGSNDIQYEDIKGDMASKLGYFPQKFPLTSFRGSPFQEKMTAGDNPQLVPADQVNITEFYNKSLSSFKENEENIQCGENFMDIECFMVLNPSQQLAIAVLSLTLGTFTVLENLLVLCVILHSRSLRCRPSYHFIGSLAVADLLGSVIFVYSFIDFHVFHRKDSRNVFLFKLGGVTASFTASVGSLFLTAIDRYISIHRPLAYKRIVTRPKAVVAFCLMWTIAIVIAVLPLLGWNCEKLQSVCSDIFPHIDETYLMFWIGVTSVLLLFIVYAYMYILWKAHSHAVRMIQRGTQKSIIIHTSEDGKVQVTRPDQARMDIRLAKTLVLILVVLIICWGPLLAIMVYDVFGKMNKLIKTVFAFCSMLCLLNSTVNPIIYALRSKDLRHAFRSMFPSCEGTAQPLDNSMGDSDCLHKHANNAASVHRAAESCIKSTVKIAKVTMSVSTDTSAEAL

SMILES: Cc1ccc(-c2cnc3nc(C(=O)CCCCCc4ccccc4)oc3c2)cc1 [Compound 25, 1-(6-(p-Tolyl)oxazolo[4,5-b]pyridin-2-yl)-6-phenylhexan-1-one]
- FAAH ABPP (10 µm) % Eff. (FAAH): N/A (N/A means less than 50% probe displacement at 10 µM inhibitor concentration)
- FAAH labeling (FAAH; up to a concentration of 10 µM, n=3): did not block FAAH labeling
- displacement of 3H-CP55940 from the CB1 receptor (cannabinoid CB1 receptor; 10 µM): did not displace
- Ki (cannabinoid CB1 receptor; CB1 receptor radioligand displacement): > 10 µM

SMILES: O=C(CCCCCc1ccccc1)c1nc2ncccc2o1 [Compound 1, 1-(Oxazolo[4,5-b]pyridin-2-yl)-6-phenylhexan-1-one, reference compound]
- FAAH ABPP (10 µm) % Eff. (FAAH): 99%
